Experimental findings from paper PMC10669220, “In Vitro α-Glucosidase and α-Amylase Inhibition, Cytotoxicity and Free Radical Scavenging Profiling of the 6-Halogeno and Mixed 6,8-Dihalogenated 2-Aryl-4-methyl-1,2-dihydroquinazoline 3-Oxides” (Antioxidants, 2023) are described below.

Series [1] is described as follows: DPPH radical scavenging assay. The following applies: mean ± SD; 45 min in the dark; 512 nm. The gist of the method: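 Compounds (0–50 µM, in DMSO) were mixed with 0.20 mM DPPH in methanol and kept in the dark for 45 min, with absorbance read at 512 nm. IC50 values were obtained by nonlinear regression of triplicate averaged readings.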
A general note: Loss of DPPH colour is used to gauge radical scavenging.

The test system of series [2] is lung cancer (A549) cell line. Kind of series: MTT cytotoxicity assay, A549. The following applies: for Cell viability percentage, A549: Table S3. On the technique in general: Tetrazolium assays rely on reduction of a dye to a coloured formazan, in cell work by metabolically active cells.
Series [3] has as its target superoxide dismutase (SOD). Kind of series: Superoxide dismutase (SOD) inhibitory assay (SOD assay kit-WST). In kind it is biochemical. The note with it: duplicate; 1-50 µM; 25 °C, 30 min; read-out: IC50 SOD inhibition. As to the method:
The antioxidant activity of the compounds 3a, 3c, 3f, 3i, 3l, 3n and 3p against superoxide radicals was assessed via enzymatic assay in vitro using the SOD assay kit-WST according to the manufacturer’s instructions (Sigma-Aldrich®). The reaction mixtures in the SOD kit were combined with 20 μL of working solution of the samples in a 96-well plate. Plates were gently shaken and then incubated at 25 °C for 30 min. The reference positive control, diphenyleneiodonium (DPI), and the compounds were tested at 01, 5, 10, 25 and 50 µM in duplicates. The inhibition activity of SOD on the reaction of […] generated the superoxide with a tetrazolium salt, which was then determined by measuring the absorbance of the mixtures at a wavelength of 450 nm using an Elisa plate reader (Varioskan Flash, ThermoFisher Scientific, Vantaa, Finland). The SOD activity values obtained used to calculate the percentage of inhibition. % SOD activity=ODx− ODy/ODx ×100% where ODx is the absorbance of the blank (untreated SOD) and ODy is the absorbance of the sample (treated SOD). All tests were performed in duplicate.

Series [4] has as its system nitric oxide synthase (NOS). Kind of series: Kinetic study on inhibitory activity of NOS. In kind it is biochemical. The note with it: seven concentrations 1-10.0 μM; Figure 3; read-out: IC50 NOS inhibition (kinetic study). As to the method: A nitric oxide synthase (NOS) assay was performed following the procedure recommended by the manufacturer as outlined in the screening kit (Catalogue No. EINO-100; EnzyChrom). Various concentrations (1, 2.5, 4.0, 5.5, 7.0, 8.5 and 10.0 µM) of the compounds 3i and the reference standard, DPI, were prepared. The enzyme solution (12.5 U/mL NOS, 10 uL), assay buffer (25 µL) and test samples (5 µL) were incubated at room temperature for 15 min. After pre-incubation, 10 µL of reaction mix was added and incubated at 37 °C for 60 min. A 200 µL quantity of NO detection reagent was added, the detection reaction was run at 37 °C for 60 min, and absorbance was determined at a wavelength of 540 nm using an Elisa plate reader (Varioskan Flash, ThermoFisher Scientific, Vantaa, Finland). The average of three readings was used to calculate the NOS percentage inhibition using the formula in Section 2.6.3

Series [5] can be described thus: MTT cytotoxicity assay, HEK293-T. The note with it: human, HEK293-T cells.
Procedure: (§1) Cells were cultured in sterile Dulbecco’s Minimal Essential Medium (DMEM, Gibco) supplemented with 10% fetal bovine serum (FBS) and 1% penicillin-streptomycin solution. […] Cell counting was carried out using a handheld automated cell counter (Scapter 3.0™, Merck, Burlington, MA, USA) and seeded (1 × 10^4 cells/well) into a 96-well plate. After 24 h, the cells were treated with different concentrations (1, 5, 10, 25 and 50 µM) of the test compounds and reference standards prepared in DMEM. The MTT solution (20 μL) prepared in PBS (5 mg/mL) was added to all the wells, and the plates were incubated for 4 h, followed by 1 h incubation with 100 µL of dimethyl sulfoxide (DMSO) to dissolve the formazan crystals. Untreated cells and 5% DMSO were included in the experiment as negative controls. All experiments were performed in triplicate. The plates were read at 570 nm at a reference wavelength of 630 nm using an ELISA plate reader (Varioskan Flash, ThermoFisher Scientific, Vantaa, Finland). The percentage of cell viability was calculated using the following formula, Cell viability %=At/Ab×100 where At represents the absorbance value of test compound and Ab the absorbance value of the blank. […] The data were expressed as means ± SD.
For series [6], the system named is human embryonic kidney (HEK293-T) cell line. Kind of series: MTT cytotoxicity assay, HEK293-T. The note with it: Homo sapiens, HEK-293T, read-out: IC50 Hek293-T.
Procedure: as §1
Series [7] deals with T1, human α-amylase (Homo sapiens, UniProt P04746).
T1 construct: purchased Abcam ab283391
T1 sequence (P04746 16-511): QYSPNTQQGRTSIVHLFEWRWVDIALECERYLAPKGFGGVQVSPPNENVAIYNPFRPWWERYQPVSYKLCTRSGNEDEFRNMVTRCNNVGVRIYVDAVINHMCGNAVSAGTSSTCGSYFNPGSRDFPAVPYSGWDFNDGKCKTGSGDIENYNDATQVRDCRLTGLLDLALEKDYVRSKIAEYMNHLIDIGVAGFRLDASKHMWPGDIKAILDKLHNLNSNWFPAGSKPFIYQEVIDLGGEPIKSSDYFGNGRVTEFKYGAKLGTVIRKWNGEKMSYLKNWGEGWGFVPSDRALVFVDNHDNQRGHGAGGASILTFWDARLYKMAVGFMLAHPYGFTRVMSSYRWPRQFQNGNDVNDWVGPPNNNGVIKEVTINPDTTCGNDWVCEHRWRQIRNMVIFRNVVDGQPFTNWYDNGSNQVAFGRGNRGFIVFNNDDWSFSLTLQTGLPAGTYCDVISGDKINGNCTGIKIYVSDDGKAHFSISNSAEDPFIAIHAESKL
As to the kind of experiment: α-amylase inhibitor screening kit assay. In kind it is biochemical. The following applies: mean ± SD, triplicate; tested at 1, 5, 10, 25, 50 µM. How it is done:
The α-amylase assay was performed in triplicate, using a 96-well plate following the procedure recommended by the manufacturer as outlined in the α-amylase inhibitor Screening Kit (Catalogue No. ab283391; Abcam). […] The average values obtained from the absorbance readings were used to determine the IC50 and standard deviation values in GraphPad prism from nonlinear regression dose–response curves.

Series [8] in a line: NO free radical scavenging assay (sodium nitroprusside/Griess). The following applies: mean ± SD; sodium nitroprusside, Griess reagent, 550 nm. The gist of the method: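 Test compound incubated with 10 mM sodium nitroprusside (stock) in phosphate buffer for 2.5 h at 25 °C, then Griess reagent added for 30 min. Triplicate absorbance means used for IC50 by nonlinear dose–response regression.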
For orientation: Nitrite, measured by Griess reagent, commonly stands in for NO production.

The test system of series [9] is breast cancer (MCF-7) cell line. As to the kind of experiment: MTT cytotoxicity assay, MCF-7. The note with it: for Cell viability percentage, MCF-7: Table S2.
Procedure: as §1

A word on the IC50: it is the concentration at which inhibition is half-maximal. By viability is commonly meant a read-out of living cells in per cent, often relative to untreated cells. Read a low viability as a greater loss of cells. As for `CC1=[N+]([O-])C(c2ccccc2)Nc2c(I)cc(Br)cc21` (centres unmarked) [Compound 3i], the IC50 in series [1] worked out at 1040 ± 77 nM; in [2] (Homo sapiens, A549, read-out: IC50 A549), 16.85 ± 0.05 µM; in [3] it was 15 ± 0.14 µM; in [4], 6.75 ± 0.002 µM; in series [6], 34.9 ± 0.13 µM; in series [7] it was 1180 ± 60 nM. Moreover, the IC50 in series [8] was determined as 61.26 ± 0.005 µM; in series [9] (Homo sapiens, MCF7, read-out: IC50 MCF-7) it was 15.43 ± 0.06 µM. The “Cell viability percentage, A549” value in series [2] (Conc. 1 (µM per method)) was 84,0927%; in series [2] (Conc. 5 (µM per method)) it was 69,8954%; in series [2] (Conc. 10 (µM per method)) it was 61,098%; in series [2] (Conc. 25 (µM per method)), 43,9195%; in series [2] (Conc. 50 (µM per method)), 23,0847%. In series [5], the viability at 1 µM came to 34.9%. Moreover, in [5], the viability at 5 µM amounted to 33.9%. The compound further yielded a viability at 10 µM in series [5] of 33.8%. Besides, in [5], the viability at 25 µM was 29.8%. The compound also displayed a viability at 50 µM in series [5] of 26.9%. Also, the “Cell viability percentage, MCF-7” value in series [9] (Conc. 1 (µM per method)) is on record as 24,1184%; in [9] (Conc. 5 (µM per method)), 22,006%; in [9] (Conc. 10 (µM per method)), 22,1058%; in series [9] (Conc. 25 (µM per method)) it was 19,5775%; in series [9] (Conc. 50 (µM per method)) it was 18,1803%.
